According to US12421264B2 (INSTITUT NATIONAL DE LA RECHERCHE SCIENTIFIQUE, priority 2018, dated 2025):
≈ marks a conversion by molar mass, not a printed value.

Key:
N. meningitidis = assay: Bacterial survival assay (3 h), CFU counts; assay type: cell-based, Neisseria meningitidis; details: 50 μM, 3 h, CFU counts vs DMSO 1% control
Procedure: (§1) Bacterial Survival Assay (3 h)
(§2) To measure bacterial survival (FIGS. 2 and 4), different bacteria were exposed to various concentrations of the compounds (as indicated) in their specific growth media (see the culture conditions above) for 3 h at 37° C. To perform this assay, all strains were grown overnight in their corresponding agar media. Cell-suspension corresponding to an OD600=0.05 were subsequently prepared. In parallel, fresh stock DMSO solutions of the compounds were prepared (100×, with final concentrations being indicated in the different figures) and 1.8 μL of the corresponding solutions were added per well of 96-well plates. In each well, 178.2 μL of bacterial suspension were subsequently added. Bacteria were allowed to grow during […] at 37° C. with 5% CO2. After incubation, serial dilutions (until 10^−6) were performed and 50 μL of each diluted solution were spread on agar plates. After an overnight incubation at 37° C. with/without 5% CO2, CFU were enumerated. All these assays were performed at least in triplicates.
(§3) Therefore, the bactericidal activity was assessed for the 4 compounds harboring a BPh4^− identified from the initial screen described above (AnIII-7, AnIII-6, AnII-18, NaBPh4). N. meningitidis was treated with 50 μM of each compound and the % survival cells (compared with DMSO 1% control) was measured using serial dilutions and CFU counts. […] To verify if the bactericidal effect could be observed for the other pathogen of the Neisseria family, a clinical isolate of. N. gonorrhoeae (LNP16626 [3]) was also treated with 50 μM of the same compounds, respectively, using the same assay.
(§4) The MBC (minimum bactericidal concentration that kill >99.999%), the concentration necessary to completely abrogate bacterial survival after a 3 h exposure to NaBPh4, was next assessed.

[1] = Partition coefficient (Log P), shaking flask method (HPLC-UV); assay type: physicochemical; details: octanol/water
Description: As well-known to the skilled person, when expressing lipophilicity as log P, P is the partition coefficient; that is the ratio of the concentrations of the compound between a hydrophobic phase and a hydrophilic phase (forming a biphasic liquid mixture), generally water and octanol.
(§5) The measurement of log P is well described in the literature—see e.g. Román, I. P.; Mastromichali, A.; Tyrovola, K.; Canals, A.; Psillakis, E. Rapid Determination of Octanol-Water Partition Coefficient Using Vortex-Assisted Liquid-Liquid Microextraction. J. Chromatogr. A 2014, 1330, 1-5; and Yiantzi, E.; Psillakis, E.; Tyrovola, K.; Kalogerakis, N. Vortex-Assisted Liquid-Liquid Microextraction of Octylphenol, Nonylphenol and Bisphenol-A. Talanta 2010, 80 (5), 2057-2062, both of which are incorporated herein by reference.
as §5, with “Partition coefficients (Log P) were determined using” for “The measurement of log P is well described in”, “shaking flask method (HPLC-UV)—see” for “literature—see e.g.”

[2] = tested on: N. gonorrhoeae (LNP16626); assay: Bacterial survival assay (3 h), CFU counts; assay type: cell-based, Neisseria gonorrhoeae; details: 50 μM, 3 h, CFU counts
Procedure: as §1, §2, §3, §4

[3] = tested on: N. meninigitidis (LNP24198) expressing luciferase (LuxABCDE); assay: N. meningitidis luminescent strain growth assay (16 h); assay type: cell-based, Neisseria meningitidis; details: for MIC: 16 h
Procedure: N. meningitidis Luminescent Strain Growth Assay (16 h)
To perform the library screening (FIG. 1) or to compare the activity of the different boron-containing salts (FIG. 3), the amount of light produced after 16 h of growth for N. meningitidis luminescent strain was measured. Contrarily to optical density (OD) readings which can be misleading due to the absorbance of dead cells, this measurement is directly correlated to the number of live cells, as the half-life of the luciferase and its substrate are limited and that the emission of light is therefore not subsisting after the death of the cells. To perform this assay, N. meninigitidis (LNP24198) expressing luciferase (LuxABCDE) was grown overnight under the control of the constitutive promoter porBp in GCB agar media, and a cell-suspension corresponding to an OD600=0.01 was subsequently prepared. In parallel, fresh stock DMSO solutions of the compounds were prepared (100×, with final concentrations being indicated in the different figures) and 1.8 μL of the corresponding solutions were added per well of 96-well plates. In each well, 178.2 μL of bacterial suspension were subsequently added. Bacteria were allowed to grow during 16 h at 37° C. with 5% CO2. The emitted light was measured using a 96-well plate luminometer (PerkinElmer Wallac 1420 Victor^3) and results are expressed in relative light unit (RLU). All these assays were performed at least in triplicates.
To screen molecules for their antibacterial activity, a luminescent system was used, as previously described for other bacteria. A clinical isolate of N. meninigitidis (LNP24198) expressing luciferase (LuxABCDE) under the control of the constitutive promoter porBp was used, as similarly described, located in the intergenic region next to NMB1732. More than 2400 compounds from different origins were screened to identify candidates with the ability to inhibit the growth of N. meningitidis after 16 h at 37° C. […] It is noteworthy that stock solutions for all tested compounds were prepared in DMSO and that the final DMSO concentration of the tested solutions was kept at 1%, a concentration which has proven not to affect the growth of N. meningitidis (FIG. 1A). […] An investigation of the effect of the BPh4^− moiety was then pursued.
To exclude any salt-specific effect, the effect of several BPh4^− and BF4^− salts on the growth of N. meningitidis luminescent strain was tested. The growth of N. meningitidis was measured after a 16 h-exposure to different concentrations of various BPh4^− and BF4^− salts. From this assay, the MIC (minimum inhibitory concentration, the lowest concentration that prevents visible bacterial growth, <800 RLU) was calculated. All BPh4 salts tested (sodium, ammonium and potassium) were all highly toxic for N. meningitidis.
Several borate compounds were prepared and their ability to inhibit N. meningitidis growth was assessed using the luminescent system described at Example 2.

[4] = minimum inhibitory concentration, N. meningitidis growth, luminescent system (<800 RLU)

| Molecule | MIC [3, 4] | logP [1] | MIC ([3]; Neisseria meningitidis) [µM] | further results |
| --- | --- | --- | --- | --- |
| F[B-](F)(F)F [BF4, reference compound] |  |  |  | survival of N. meningitidis (N. meningitidis): does not exhibit anti-bacterial activity; Log P [1]: about −1.6; survival of N. gonorrhoeae [2]: does not exhibit anti-bacterial activity |
| c1ccc(B(c2ccccc2)c2ccccc2)cc1 [BPh3, triphenylborane, reference compound] |  |  |  | toxicity / effect on growth of N. meningitidis luminescent strain (FIG. 3) ([3]; 16 h-exposure, different concentrations): No observable toxicity |
| F[B-](F)(F)c1ccccc1.[K+] [Compound 2, Potassium trifluoro(phenyl)borate, reference compound] | >250 µM |  |  |  |
| C[B-](c1ccccc1)(c1ccccc1)c1ccccc1 [Compound 5, Sodium methyltriphenylborate] |  | -0.96 ± 0.1 | 25 |  |
| CC[B-](c1ccccc1)(c1ccccc1)c1ccccc1 [Compound 6, Sodium ethyltriphenylborate] |  | 0 | 25 |  |
| CCC[B-](c1ccccc1)(c1ccccc1)c1ccccc1 [Compound 7, Sodium n-propyltriphenylborate] |  | 0.8 ± 0.2 | 5 |  |
| CCCCCC[B-](c1ccccc1)(c1ccccc1)c1ccccc1 [Compound 9, Sodium hexyltriphenylborate] |  | 2.83 ± 0.02 | 1 |  |
| CCCCCCC[B-](c1ccccc1)(c1ccccc1)c1ccccc1 [Compound 10, Sodium heptyltriphenylborate] |  | 3.1 ± 0.05 | 1 |  |
| CCCCCCCC[B-](c1ccccc1)(c1ccccc1)c1ccccc1 [Compound 11, Sodium octyltriphenylborate] |  | 4.1 ± 0.3 | 1 |  |
| Cc1ccc([B-](c2ccccc2)(c2ccccc2)c2ccccc2)cc1.[Na+] [Compound 12, Sodium tolyltriphenylborate] | 25 µM |  |  | Log P [1]: 0.41±0.02 |
| Cc1ccc([B-](c2ccccc2)(c2ccc(C)cc2)c2ccc(C)cc2)cc1.[Na+] [Compound 14, Sodium tris(4-methylphenyl)(phenyl)borate] | 5 µM |  |  | Log P [1]: 2.5±0.2 |
| Cc1ccc([B-](c2ccc(C)cc2)(c2ccc(C)cc2)c2ccc(C)cc2)cc1.[Na+] [Compound 15, sodium tetrakis(tolyl)borate] | Active but MIC not determined because of abnormal background signal |  |  |  |
| Fc1ccc([B-](c2ccc(F)cc2)(c2ccc(F)cc2)c2ccc(F)cc2)cc1 [Compound 16, sodium tetrakis(4-fluorophenyl)borate] |  |  | 2.5 |  |
| Oc1ccc2ccccc2c1/C=N/c1ccc([B-](c2ccccc2)(c2ccccc2)c2ccccc2)cc1 [Compound 19, sodium {4-[(E)-[(2-hydroxynaphthalen-1-yl)methylidene]amino]phenyl}triphenylborate] |  |  | 2.35 |  |
| c1ccc(P(c2ccccc2)c2nc3ccccc3n2Cc2ccc([B-](c3ccccc3)(c3ccccc3)c3ccccc3)cc2)cc1 [Compound 21] |  |  | 0.78 |  |
| c1ccc([B-]2(c3ccccc3)[NH2+]CCO2)cc1 [Compound 22] |  |  | 75 (≈ 16.9 µg/mL) |  |
| CC[C@H]1OC(=O)[C@H](C)[C@@H](O[C@H]2C[C@@](C)(OC)[C@@H](O)[C@H](C)O2)[C@H](C)[C@@H](O[C@@H]2O[C@H](C)C[C@H](N(C)C)[C@H]2O)[C@](C)(O)C[C@@H](C)C(=O)[C@H](C)[C@@H](O)[C@]1(C)O [erythromycin, reference compound] |  |  |  | emitted light after 16 h of growth ([3]; erythromycin 3.5 μM, largest value of 10 replicates): < 800 RLU |
| Potassium difluorodiphenylborate [Compound 3] | 37.5 µM |  |  |  |
| Sodium bis(4-methylphenyl)diphenylborate [Compound 13] | 5 µM |  |  | Log P [1]: 2.0±0.1 |
| Sodium tetrafluoroborate [Compound 4, reference compound] | >250 µM |  |  |  |
